In brackets after ≈: the same amount, converted by molar mass. Several values for one entry are separate records, joined by “and”; a condition that tells them apart may be missing. Equal entries are not always repeated.
Key:
[1] = system: TPA-stimulated epidermal DNA synthesis in mouse epidermis; assay: TPA-induced epidermal DNA synthesis in mouse epidermis, oral fluasterone; format: in vivo, CD-1 mice
Description: (§1) In dose-response experiments the anti-hyperplastic efficacy of fluasterone in TPA-treated mouse epidermis to determine bioavailability following different routes of administration was measured. Mice were treated with a single dose of fluasterone (either orally, subcutaneously, or transdermally) followed by a single application of TPA to the shaved back one hour latter. In case of transdermal administration, fluasterone is applied in a topical formulation to the shaved abdomen to allow for systemic absorption to the back of the animal. Twenty hours after TPA application, the mice are injected with 60 μCi of [3H] thymidine, sacrificed 20 minutes later, and a 2×2 cm2 of skin from the shaved back is excised and processed for the determination of the amount of [3H] thymidine incorporated per unit of epidermal DNA. (Hennings et. al., Cancer Res. 28:543-552, 1968).
Fluasterone suspensions were prepared using sesame oil as vehicle. Micronized fluasterone was obtained from Pharmaceutics International, Inc. Five suspensions were prepared—100 mg/kg (13 mg/mL), 200 mg/kg (26.5 mg/mL), 400 mg/kg (52.4 mg/mL), 800 mg/kg (105.5 mg/mL), and 1200 mg/kg (158.3 mg/mL). The fluasterone for each suspension was weighed, placed into a plastic vial, and the required volume of sesame oil was added to the vial. The fluasterone was suspended in the sesame oil with the use of a Tekmar Tissumizer. Magnetic stirrer bars were added to the various suspensions which were stirred on a magnetic stirrer prior to treatment. Control and TPA groups received sesame oil alone.
Female CD-1 mice were obtained from Charles River Laboratories, Wilmington, Mass. at 35-37 days of age.
The mice were housed three per cage in plastic shoebox cages on Alphacel bedding with 12 hours of alternating light and dark in the CAF Animal Facility. The mice had ad libitum access to Purina 5.015 chow and acidified tap water (pH≦2.6). The mice were shaved, weighed and distributed into groups of three. • Control The mice were treated orally with 0.2 mL of sesame oil. One hour after treatment with sesame oil, the mice were treated topically with 0.2 mL of acetone. • TPA The mice were treated orally with 0.2 mL of sesame oil. […] One hour after treatment with fluasterone, the mice were treated topically with 2 μg of TPA in 0.2 mL of acetone.
The mice were sacrificed 20 hours after treatment by an overdose of CO2. Twenty minutes prior to sacrifice, the mice were injected with 60 μCi of [^3H]thymidine (Amersham). The mice were treated with a depilatory to remove any residual hair. A 2×2 cm^2 piece of skin was excised, placed in ice water for 30 seconds, then in 55° C. water for 30 seconds, then in ice water again for 30 seconds. The epidermis was s raped off using a scalpel and the scrapings were placed into ice cold 0.4N TCA. The scrapings were homogenized using a Tekmar Tissumizer (80% power for 30 seconds). The homogenates were centrifuged for 20 minutes at 3,000×g. The precipitates were washed 3× with 0.2N TCA. The TCA was removed and the precipitates were stored at −20° C. overnight. The next day, the precipitates were washed 2× with absolute ethanol. The DNA in each sample was hydrolyzed with 0.5N TCA for 30 minutes at 90°. The tubes were centrifuged for 20 minutes at 3000×g. A 0.2 mL aliquot of each hydrolysate was counted in a LKB Rackbeta scintillation counter using Scintiverse II BD as the counting medium. DNA content was determined by the Burton diphenylamine assay.
102.7 mg of Micronized fluasterone I was weighed using a Mettler AE-50 balance, transferred to a glass scintillation vial, and homogenized in 6.0 mL of carboxymethylcellulose-Tween 80 using a Tekmar Tissumizer (200 mg/kg micronized I suspension, 200 MI). 88.4 mg of micronized fluasterone II was then weighed, transferred to a glass scintillation vial, and homogenized in 5.2 mL of CMC-Tween using a Tekmar Tissumizer (200 mg/kg micronized II suspension, 200 MII).

[2] = system: TPA-stimulated epidermal DNA synthesis in mouse epidermis; assay: as above; format: in vivo, CD-1 mice; conditions: Table 20; TPA 2 μg topical after sesame oil and suspension vehicle p.o. only; 20 h; group mean
[3] = system: TPA-stimulated epidermal hyperplasia in mouse skin; assay: TPA-stimulated epidermal hyperplasia in mouse skin, subcutaneous fluasterone; format: in vivo, mice; conditions: subcutaneous injection
Description: as §1

[4] = Oral single dose PK experiment in mice; format: in vivo; conditions: 200 mg/kg oral single dose
Description: An oral single dose PK experiment in mice following administration of 200 mg/kg fluasterone was performed. The calculated AUC0-24 was 2,242 (ngXh/mL). A PK study was also performed in 12 human volunteers as part of a phase I fluasterone study. The volunteers received either 800 mg or 1600 mg fluasterone orally as a daily dose. The AUC0-24/mg dose was calculated.

[5] = Solubility of fluasterone in solvents and mixed solvents; format: physicochemical; conditions: thermodynamic from solid
Description: Fluasterone: The solubility of fluasterone in various solvents was determined by adding a specific volume of solvent to a weighed amount of fluasterone in a screw-capped glass vial and shaking vigorously for several minutes. Incremental volumes of solvent were added, followed by vigorous shaking, until the fluasterone completely dissolved.
Alternatively solubility was determined by adding a specific volume of solvent to a weighed amount of fluasterone in a screw-capped glass vial and warming the vial on a hot plate with vigorous shaking until the fluasterone dissolved. Fluasterone was considered soluble if it remained in solution after at least a month at room temperature. Although the above procedures may not give precise solubilities, they should give a close approximation of maximum fluasterone solubility.
In these experiments fluasterone solubility was determined by adding fluasterone to a measured volume of solvent in a screw-capped glass vial. The vial was warned on a hot plate with vigorous shaking until the fluasterone dissolved. Fluasterone was considered soluble if it remained in solution after at least a month at room temperature.

[6] = system: TPA-promoted skin tumor promotion; conditions: Schwartz et al. Carcinogenesis 10:1809-1813, 1989; cited from earlier work
[7] = Table 18, TPA 2 μg topical after CMC-Tween p.o. only, 20 h, single mice
[8] = Table 4, 100 mg/kg p.o. micronized in sesame oil 1 h before 2 μg TPA, 20 h, group mean
[9] = Table 4, 200 mg/kg p.o. micronized in sesame oil 1 h before 2 μg TPA, 20 h, group mean
[10] = Table 4, 400 mg/kg p.o. micronized in sesame oil 1 h before 2 μg TPA, 20 h, group mean
[11] = Table 4, 800 mg/kg p.o. micronized in sesame oil 1 h before 2 μg TPA, 20 h, group mean
[12] = Table 4, 1200 mg/kg p.o. micronized in sesame oil 1 h before 2 μg TPA, 20 h, group mean

Structure (SMILES): CCCCCCCCCCCCCC(=O)O[C@@H]1[C@@H](C)[C@@]2(O)[C@@H](C=C(CO)C[C@]3(O)C(=O)C(C)=C[C@@H]23)[C@@H]2C(C)(C)[C@]12OC(C)=O [TPA, 12-O-tetradecanoylphorbol-13-acetate, reference compound]
- μg DNA ([1]; Table 4, TPA 2 μg topical, sesame oil p.o. only, 20 h, 2×2 cm2 skin, group mean): 14.1 ± 1.3 µg
- cpm/μg DNA ([1]; Table 4, TPA 2 μg topical, sesame oil p.o. only, 20 h, group mean): 641.5 ± 115.2 cpm/μg DNA
- corrected cpm [1, 7]: 9,877 cpm and 8,235 cpm and 8,699 cpm
- μg DNA/0.2 ml [1, 7]: 28.0 μg DNA/0.2 ml and 31.9 μg DNA/0.2 ml and 28.2 μg DNA/0.2 ml
- cpm/μg DNA ([1]; Table 18, TPA 2 μg topical after CMC-Tween p.o. only, 20 h, single mice and group mean): 351.6 cpm/μg DNA and 258.6 cpm/μg DNA and 308.5 cpm/μg DNA
- cpm/μg DNA ([1]; Table 18, TPA 2 μg topical after CMC-Tween p.o. only, 20 h, single mice and group mean, group mean): 306.1 ± 46.8 cpm/μg DNA
- μg DNA ([1]; Table 20, TPA 2 μg topical after sesame oil and suspension vehicle p.o. only, 20 h, group mean): 13.9 ± 0.3 µg
- cpm/μg DNA [2]: 374.1 ± 16.8 cpm/μg DNA
- dpm/μg DNA [2]: 603.4 ± 36.8 dpm/μg DNA

Structure (SMILES): C[C@]12CCCCC1=CC[C@@H]1[C@@H]2CC[C@]2(C)C(=O)[C@H](F)C[C@@H]12 [Fluasterone, 16α-fluoro-5-androsten-17-one]
- lowest effective dose which abolishes TPA-stimulated epidermal hyperplasia [3]: 2.5 to 5 mg/kg
- AUC0-24 [4]: 2,242 ngXh/mL
- solubility ([5]; 10% Tween 80-90% ethanol (v/v), organic solvent or mixture, room temperature): < 10000 µg/mL
- solubility ([5]; 15% Tween 80-85% ethanol (v/v), organic solvent or mixture, room temperature): < 10000 µg/mL
- solubility ([5]; 20% Tween 80-80% ethanol (v/v), organic solvent or mixture, room temperature): > 10000 µg/mL
- solubility ([5]; 50% Tween 80-50% ethanol (v/v), organic solvent or mixture, room temperature): > 14000 µg/mL
- solubility ([5]; cetyl alcohol:ethanol (10%:90%, w/w), organic solvent or mixture, cetyl alcohol:ethanol (10%:90%, w/w), room temperature): < 10000 µg/mL
- solubility ([5]; cetyl alcohol:ethanol (20%:80%, w/w), organic solvent or mixture, cetyl alcohol:ethanol (20%:80%, w/w), room temperature): < 12000 µg/mL
- solubility ([5]; cetyl alcohol:ethanol mixtures (20-22% cetyl alcohol), organic solvent or mixture, cetyl alcohol:ethanol mixtures (20-22% cetyl alcohol), summary, room temperature): > 10000 µg/mL
- solubility ([5]; dimethyl sulfoxide (DMSO), organic solvent or mixture): 3600 µg/mL (≈ 12.4 mM)
- solubility ([5]; ethanol, organic solvent or mixture): 6600 µg/mL (≈ 22.7 mM)
- solubility ([5]; isopropyl myristate, oil or lipid): 16000 µg/mL (≈ 55.1 mM)
- solubility ([5]; limonene, organic solvent or mixture): 22600 µg/mL (≈ 77.8 mM)
- solubility ([5]; polyethylene glycol 400 (PEG-400), organic solvent or mixture): 1100 µg/mL (≈ 3.79 mM)
- solubility ([5]; propylene glycol, organic solvent or mixture): > 500 µg/mL
- cpm/μg DNA [1, 8]: 539.8 ± 75.9 cpm/μg DNA
- μg DNA [1, 8]: 15.5 ± 3.0 µg
- cpm/μg DNA [1, 9]: 185.0 ± 38.2 cpm/μg DNA
- μg DNA [1, 9]: 6.0 ± 1.9 µg
- cpm/μg DNA [1, 10]: 208.8 ± 144.2 cpm/μg DNA
- μg DNA [1, 10]: 6.6 ± 2.6 µg
- cpm/μg DNA [1, 11]: 634.3 ± 151.6 cpm/μg DNA
- μg DNA [1, 11]: 6.2 ± 1.0 µg
- cpm/μg DNA [1, 12]: 850.0 ± 256.0 cpm/μg DNA
- μg DNA [1, 12]: 6.3 ± 1.5 µg
- lowest effective oral dose which abolishes TPA-stimulated epidermal hyperplasia ([3H]thymidine incorporation and epidermal DNA content) ([1]; mouse skin, single oral dose): 200 mg/kg
- lowest reported oral dose which inhibits TPA-promoted skin tumor promotion [6]: 200 mg/kg
